Results reported in patent US10030021B2, “Spirocyclic morphinans and use thereof” (Purdue Pharma L.P., priority 2014, dated 2018).

Biological target: T1, μ-opioid receptor (Homo sapiens, UniProt P35372)
T1 construct: purchased Perkin Elmer, Shelton, Conn
Experiment: μ-opioid receptor [35S]GTPγS functional assay
Type: biochemical
Settings: for Emax: maximal effect relative to DAMGO
Experimental: [^35S]GTPγS functional assays were conducted using freshly thawed μ-receptor membranes (Perkin Elmer, Shelton, Conn.). Assay reactions were prepared by sequentially adding the following reagents to binding buffer (100 mM NaCl, 10 mM MgCl2, 20 mM HEPES, pH 7.4) on ice (final concentrations indicated): membrane protein (0.026 mg/mL), saponin ([…]), GDP ([…]) and [^35S]GTPγS (0.20 nM; Perkin Elmer, Shelton, Conn.). The prepared membrane solution (190 μl/well) was transferred to 96-shallow well polypropylene plates containing 10 μl of 20× concentrated stock solutions of the agonist [D-Ala^2, N-methyl-Phe^4 Gly-ol^5]-enkephalin (DAMGO) prepared in dimethyl sulfoxide (DMSO). Plates were incubated for 30 min at about 25° C. with shaking. Reactions were terminated by rapid filtration onto 96-well Unifilter GF/B filter plates (Perkin Elmer, Shelton, Conn.) using a 96-well tissue harvester (Perkin Elmer, Shelton, Conn.) followed by three filtration washes with 200 μl of ice-cold wash buffer (10 mM NaH2PO4, 10 mM Na2HPO4, pH 7.4). Filter plates were subsequently dried at 50° C. for 2-3 hours. BetaScint scintillation cocktail (Perkin Elmer, Shelton, Conn.) was added (50 μl/well) and plates were counted using a Packard Top-Count for 1 min/well. Data were analyzed using the sigmoidal dose-response curve fitting functions in GraphPad PRISM v. 3.0, or an in-house function for non-linear, sigmoidal dose-response curve-fitting.
μ GTP EC50 is the concentration of a compound providing 50% of the maximal response for the compound at a μ-opioid receptor.
μ GTP Emax (%) is the maximal effect elicited by a compound relative to the effect elicited by DAMGO, a standard agonist. Generally, the μ GTP Emax (%) value measures the efficacy of a compound to treat or prevent pain or other Conditions.

T1 sequence (P35372 whole entry, species assumed): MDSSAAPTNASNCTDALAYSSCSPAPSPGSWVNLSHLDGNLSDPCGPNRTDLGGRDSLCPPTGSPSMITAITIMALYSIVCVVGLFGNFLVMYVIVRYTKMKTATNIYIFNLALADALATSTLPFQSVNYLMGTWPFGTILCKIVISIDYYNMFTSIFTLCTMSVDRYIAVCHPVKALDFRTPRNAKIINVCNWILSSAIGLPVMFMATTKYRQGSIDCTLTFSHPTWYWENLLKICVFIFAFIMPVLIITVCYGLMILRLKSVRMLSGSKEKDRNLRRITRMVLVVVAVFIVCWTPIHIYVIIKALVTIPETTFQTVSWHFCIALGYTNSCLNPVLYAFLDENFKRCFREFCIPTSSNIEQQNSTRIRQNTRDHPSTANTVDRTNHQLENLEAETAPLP

| SMILES | EC50 [µM] | Emax [%] |
| --- | --- | --- |
| COc1ccc2c(c1)[C@]13CCN(C)[C@H](C2)[C@@H]1CC[C@@]1(C3)NC(=O)NC1=O [Compound 2, (4S,4b′S,8a′R,9′R)-3′-methoxy-11′-methyl-8′,8a′,9′,10′-tetrahydro-5′H,7′H-spiro[imidazolidine-4,6′-[9,4b](epiminoethano)phenanthrene]-2,5-dione] | 18 ± 1.1 | 75.7 ± 0.88 |
| COc1ccc2c(c1)[C@]13CCN(CCN(C)C)[C@H](C2)[C@]1(O)CC[C@@]1(C3)NC(=O)NC1=O [Compound 3, (4S,4b′R,8a′S,9′R)-11′-(2-(dimethylamino)ethyl)-8a′-hydroxy-3′-methoxy-8′,8a′,9′,10′-tetrahydro-5′H,7′H-spiro[imidazolidine-4,6′-[9,4b](epiminoethano)phenanthrene]-2,5-dione] | > 20 | -0.8 |
| COc1ccc2c(c1)[C@]13CCN(CCCN(C)C)[C@H](C2)[C@]1(O)CC[C@@]1(C3)NC(=O)NC1=O [Compound 4, (4S,4b′R,8a′S,9′R)-11′-(3-(dimethylamino)propyl)-8a′-hydroxy-3′-methoxy-8′,8a′,9′,10′-tetrahydro-5′H,7′H-spiro[imidazolidine-4,6′-[9,4b](epiminoethano)phenanthrene]-2,5-dione] | > 20 | -1 ± 0.003 |
| CCN1C(=O)N(CC)[C@]2(CC[C@@]3(O)[C@H]4Cc5ccc(OC)cc5[C@@]3(CCN4CCN(C)C)C2)C1=O [Compound 8, (4S,4b′R,8a′S,9′R)-11′-(2-(dimethylamino)ethyl)-1,3-diethyl-8a′-hydroxy-3′-methoxy-8′,8a′,9′,10′-tetrahydro-5′H,7′H-spiro[imidazolidine-4,6′-[9,4b](epiminoethano)phenanthrene]-2,5-dione] | > 20 | 1 |
| COc1ccc2c(c1)[C@]13CCN(CCCN(C)C)[C@H](C2)[C@]1(O)CC[C@]1(C3)C(=O)N(CC2CC2)C(=O)N1CC1CC1 [Compound 13, (4S,4b′R,8a′S,9′R)-1,3-bis(cyclopropylmethyl)-11′-(3-(dimethylamino)propyl)-8a′-hydroxy-3′-methoxy-8′,8a′,9′,10′-tetrahydro-5′H,7′H-spiro[imidazolidine-4,6′-[9,4b]-(epiminoethano)phenanthrene]-2,5-dione] | > 20 | 1 |
| CCN1C(=O)N(CC)[C@]2(CC[C@@]3(O)[C@H]4Cc5ccc(OC)cc5[C@@]3(CCN4CCCN(C)C)C2)C1=O [Compound 14, (4S,4b′R,8a′S,9′R)-11′-(3-(dimethylamino)propyl)-1,3-diethyl-8a′-hydroxy-3′-methoxy-8′,8a′,9′,10′-tetrahydro-5′H,7′H-spiro[imidazolidine-4,6′-[9,4b](epiminoethano)-phenanthrene]-2,5-dione] | > 20 | 1 |
| COc1ccc2c(c1)[C@]13CCN(CCN(C)C)[C@H](C2)[C@]1(O)CC[C@]1(C3)C(=O)N(CC2CC2)C(=O)N1CC1CC1 [Compound 15, (4S,4b′R,8a′S,9′R)-1,3-bis(cyclopropylmethyl)-11′-(2-(dimethylamino)ethyl)-8a′-hydroxy-3′-methoxy-8′,8a′,9′,10′-tetrahydro-5′H,7′H-spiro[imidazolidine-4,6′-[9,4b]-(epiminoethano)phenanthrene]-2,5-dione] | > 20 | 1 |
| COc1ccc2c(c1)[C@]13CCN[C@H](C2)[C@]1(O)CC[C@]1(C3)C(=O)N(CC2CC2)C(=O)N1CC1CC1 [Compound 17, (4S,4b′R,8a′S,9′R)-1,3-bis(cyclopropylmethyl)-8a′-hydroxy-3′-methoxy-8′,8a′,9′,10′-tetrahydro-5′H,7′H-spiro[imidazolidine-4,6′-[9,4b](epiminoethano)phenanthrene]-2,5-dione] | > 20 | 26 ± 5.51 |
| CCN1C(=O)N(CC)[C@]2(CC[C@@]3(O)[C@H]4Cc5ccc(OC)cc5[C@@]3(CCN4)C2)C1=O [Compound 18, (4S,4b′R,8a′S,9′R)-1,3-diethyl-8a′-hydroxy-3′-methoxy-8′,8a′,9′,10′-tetrahydro-5′H,7′H-spiro[imidazolidine-4,6′-[9,4b](epiminoethano)phenanthrene]-2,5-dione] | > 20 | 35.7 ± 1.2 |
| CN1CC[C@]23C[C@]4(CC[C@H]2[C@H]1Cc1ccc(O)cc13)NC(=O)NC4=O [Compound 19, (4S,4b′S,8a′R,9′R)-3′-hydroxy-11′-methyl-8′,8a′,9′,10′-tetrahydro-5′H,7′H-spiro[imidazolidine-4,6′-[9,4b](epiminoethano)phenanthrene]-2,5-dione] | 0.097 ± 0.0115 | 54.6 ± 3.04 |
| CCN1C(=O)N(CC)[C@]2(CC[C@@]3(O)[C@H]4Cc5ccc(O)cc5[C@@]3(CCN4)C2)C1=O [Compound 20, (4S,4b′R,8a′S,9′R)-1,3-diethyl-3′,8a′-dihydroxy-8′,8a′,9′,10′-tetrahydro-5′H,7′H-spiro[imidazolidine-4,6′-[9,4b](epiminoethano)phenanthrene]-2,5-dione] | 1.88 ± 0.252 | 28 ± 1.53 |
| O=C1NC(=O)[C@@]2(CC[C@@]3(O)[C@H]4Cc5ccc(O)cc5[C@@]3(CCN4)C2)N1 [Compound 22, (4S,4b′R,8a′S,9′R)-3′,8a′-dihydroxy-8′,8a′,9′,10′-tetrahydro-5′H,7′H-spiro[imidazolidine-4,6′-[9,4b](epiminoethano)phenanthrene]-2,5-dione] | 2.85 ± 0.216 | 71.7 ± 2.6 |
| O=C1N(CC2CC2)C(=O)[C@@]2(CC[C@@]3(O)[C@H]4Cc5ccc(O)cc5[C@@]3(CCN4)C2)N1CC1CC1 [Compound 23, (4S,4b′R,8a′S,9′R)-1,3-bis(cyclopropylmethyl)-3′,8a′-dihydroxy-8′,8a′,9′,10′-tetrahydro-5′H,7′H-spiro[imidazolidine-4,6′-[9,4b](epiminoethano)phenanthrene]-2,5-dione] | 3.79 ± 0.287 | 15.7 ± 0.33 |
| CCN1C(=O)N(CC)[C@]2(CC[C@@]3(O)[C@H]4Cc5ccc(O)cc5[C@@]3(CCN4CCc3ccccc3)C2)C1=O [Compound 24, (4S,4b′R,8a′S,9′R)-1,3-diethyl-3′,8a′-dihydroxy-11′-phenethyl-8′,8a′,9′,10′-tetrahydro-5′H,7′H-spiro[imidazolidine-4,6′-[9,4b](epiminoethano)phenanthrene]-2,5-dione] | 0.073 ± 0.0197 | 65.3 ± 4.26 |
| CN(C)CCN1CC[C@]23C[C@@]4(CC[C@@]2(O)[C@H]1Cc1ccc(O)cc13)C(=O)N(CC1CC1)C(=O)N4CC1CC1 [Compound 25, (4S,4b′R,8a′S,9′R)-1,3-bis(cyclopropylmethyl)-11′-(2-(dimethylamino)ethyl)-3′,8a′-dihydroxy-8′,8a′,9′,10′-tetrahydro-5′H,7′H-spiro[imidazolidine-4,6′-[9,4b](epiminoethano)-phenanthrene]-2,5-dione] | > 20 | 1 |
| CCN1C(=O)N(CC)[C@]2(CC[C@@]3(O)[C@H]4Cc5ccc(O)cc5[C@@]3(CCN4CCN(C)C)C2)C1=O [Compound 26, (4S,4b′R,8a′S,9′R)-11′-(2-(dimethylamino)ethyl)-1,3-diethyl-3′,8a′-dihydroxy-8′,8a′,9′,10′-tetrahydro-5′H,7′H-spiro[imidazolidine-4,6′-[9,4b](epiminoethano)phenanthrene]-2,5-dione] | > 20 | 0.5 |
| CCN1C(=O)N(CC)[C@]2(CC[C@@]3(O)[C@H]4Cc5ccc(O)cc5[C@@]3(CCN4CCCN(C)C)C2)C1=O [Compound 27, (4S,4b′R,8a′S,9′R)-11′-(3-(dimethylamino)propyl)-1,3-diethyl-3′,8a′-dihydroxy-8′,8a′,9′,10′-tetrahydro-5′H,7′H-spiro[imidazolidine-4,6′-[9,4b](epiminoethano)phenanthrene]-2,5-dione] | > 20 | 1 |
| CN(C)CCCN1CC[C@]23C[C@@]4(CC[C@@]2(O)[C@H]1Cc1ccc(O)cc13)C(=O)N(CC1CC1)C(=O)N4CC1CC1 [Compound 28, (4S,4b′R,8a′S,9′R)-1,3-bis(cyclopropylmethyl)-11′-(3-(dimethylamino)propyl)-3′,8a′-dihydroxy-8′,8a′,9′,10′-tetrahydro-5′H,7′H-spiro[imidazolidine-4,6′-[9,4b](epiminoethano)-phenanthrene]-2,5-dione] | > 20 | 1.36 |
| CN(C)CCN1CC[C@]23C[C@]4(CC[C@@]2(O)[C@H]1Cc1ccc(O)cc13)NC(=O)NC4=O [Compound 29, (4S,4b′R,8a′S,9′R)-11′-(2-(dimethylamino)ethyl)-3′,8a′-dihydroxy-8′,8a′,9′,10′-tetrahydro-5′H,7′H-spiro[imidazolidine-4,6′-[9,4b](epiminoethano)phenanthrene]-2,5-dione] | 3.92 ± 0.571 | 23.4 ± 1.68 |
| CN(C)CCCN1CC[C@]23C[C@]4(CC[C@@]2(O)[C@H]1Cc1ccc(O)cc13)NC(=O)NC4=O [Compound 30, (4S,4b′R,8a′S,9′R)-11′-(3-(dimethylamino)propyl)-3′,8a′-dihydroxy-8′,8a′,9′,10′-tetrahydro-5′H,7′H-spiro[imidazolidine-4,6′-[9,4b](epiminoethano)phenanthrene]-2,5-dione] | > 20 | 1 |
